Test results as given in patent publication US20250302823A1, “COMPOSITIONS AND METHODS FOR TREATING HEPATIC […] GLYCINE TRANSPORT INHIBITORS” (Disc Medicine, Inc., priority 2022, published 2025).

Columns and labels:
[1] = test system: ALAS1 and GlyT1 mRNA in HepG2 cells; assay: qPCR expression of ALAS1 and GlyT1 in HepG2 cells after phenobarbital
GlyT1 = target: T1, GlyT1 (Homo sapiens, UniProt P48067); assay: 3H-glycine uptake in HepG2 cells overexpressing GlyT1; format: cell-based
T1 construct: expressed in transfected cells; host or cells: HepG2, lentiviral infection (pLenti6.3-GlyT1)
T1 sequence (P48067 1-706): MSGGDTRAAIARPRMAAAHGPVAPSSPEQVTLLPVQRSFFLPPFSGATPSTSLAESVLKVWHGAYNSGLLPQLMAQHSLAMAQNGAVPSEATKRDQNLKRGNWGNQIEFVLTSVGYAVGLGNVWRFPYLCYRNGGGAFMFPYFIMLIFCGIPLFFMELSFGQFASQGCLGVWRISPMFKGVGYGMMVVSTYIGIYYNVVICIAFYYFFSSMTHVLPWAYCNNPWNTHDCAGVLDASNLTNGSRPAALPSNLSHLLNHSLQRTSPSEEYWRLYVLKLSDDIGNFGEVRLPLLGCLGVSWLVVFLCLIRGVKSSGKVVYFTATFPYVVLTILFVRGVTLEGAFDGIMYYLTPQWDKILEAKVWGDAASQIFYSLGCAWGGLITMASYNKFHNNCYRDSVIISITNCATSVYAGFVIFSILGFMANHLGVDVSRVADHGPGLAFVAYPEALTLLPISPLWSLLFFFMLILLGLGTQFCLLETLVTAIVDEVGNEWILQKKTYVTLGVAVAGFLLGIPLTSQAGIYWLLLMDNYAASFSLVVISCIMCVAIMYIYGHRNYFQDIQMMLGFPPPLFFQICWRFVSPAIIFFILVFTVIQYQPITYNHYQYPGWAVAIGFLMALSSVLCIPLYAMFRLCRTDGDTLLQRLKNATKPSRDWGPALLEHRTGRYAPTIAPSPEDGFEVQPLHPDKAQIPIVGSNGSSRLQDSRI
Experimental: The hepatic originated cell line HepG2 cell was engineered via lentiviral infection to overexpress untagged GlyT1 (FIG. 4A) or HA-Flag-tagged GlyT1 (FIG. 4B). Overexpression of GlyT1 was used to mimic the phenobarbital induced AIP symptoms observed in HepG2 as described in Example 3. The HA-Flag tagged construct was used to confirm the overexpression of the GlyT1 protein by Western blot. Overexpression of the untagged construct was confirmed by qPCR. The cells were cultured in the presence of the GlyT1 inhibitor bitopertin at room temperature for 60 min and then incubated with 20 nM ^3H-labeled glycine in the presence of 25 μM unlabeled glycine for 60 min. The uptake of glycine was measured by detection of radioisotope levels.

[2] = test system: HepG2 cells transduced with shHMBS, GlyT1, ALAS1; assay: 5-ALA and PBG production in AIP cellular model (HepG2 with shHMBS, GlyT1, ALAS1); format: cell-based, human
From the text: The hepatic origin cell line HepG2 was engineered to express shRNA against HMBS, a gene in the heme biosynthesis pathway whose loss-of-function mutations cause hepatic porphyria. The shRNA reduced HMBS mRNA by 50% and HMBS protein by 70%. Hepatic porphyria is a dormant disease activated by increased expression of ALAS1. To establish the cellular model that resembles the pathologic status of hepatic porphyria, the HepG2 cells with HMBS knockdown were also transduced by lentivirus to overexpress ALAS1 and GlyT1.
The normal plasma glycine concentration in human adults ranges from 0.12 to 0.55 mM. To confirm GlyT1 inhibitors such as bitopertin can decrease production of toxic metabolites at physiological condition, the modified HepG2 cells were treated with bitopertin in the presence of different concentrations of glycine (0.1-1 mM).

SMILES	increase of mRNA of ALAS1 and GlyT1 ([1]; HepG2, 24 h after phenobarbital treatment) [fold]	increase of mRNA of ALAS1 and GlyT1 ([1]; HepG2, 48 h after phenobarbital treatment) [fold]	IC50 (GlyT1; engineered HepG2 overexpressing untagged or HA-Flag-tagged GlyT1, 20 nM 3H-glycine + 25 μM unlabeled glycine, 60 min) [nM]	glycine uptake in the engineered HepG2 cells (GlyT1; in the presence of bitopertin)	toxic metabolite 5-ALA at different glycine concentrations ([2]; glycine 0.1-1 mM in medium, FIG. 6A)	toxic metabolite PBG at different glycine concentrations ([2]; glycine 0.1-1 mM in medium, FIG. 6B)	production of toxic metabolite 5-ALA ([2]; modified HepG2 cells, FIG. 5A)	production of toxic metabolite PBG ([2]; modified HepG2 cells, FIG. 5B)
CCC1(c2ccccc2)C(=O)NC(=O)NC1=O [phenobarbital]	3	6	–	–	–	–	–	–
C[C@H](Oc1ccc(S(C)(=O)=O)cc1C(=O)N1CCN(c2ncc(C(F)(F)F)cc2F)CC1)C(F)(F)F [bitopertin]	–	–	710 to 1540	significantly reduced	consistent reduction	consistent reduction	significantly decrease	significantly decrease
